From ChEMBL document CHEMBL3785071, “Development of potential broad spectrum antimicrobials using C2-symmetric 9-fluorenone alkyl amine” (Bioorg Med Chem Lett, 2016) come the findings set out here.

The subject of test [1] is Burkholderia cepacia. The experiment in a line: Antibacterial activity against Burkholderia cepacia ATCC 25608 after 20 hrs. In kind it is functional.
Test [2] relates to Escherichia coli. Description: Antibacterial activity against Escherichia coli ATCC 35218 at 100 ug/ml after 20 hrs. In kind it is functional, organism-based.
In test [3] the test system is Yersinia pestis. The experiment in a line: Antibacterial activity against Yersinia pestis A1122 at 100 ug/ml after 20 hrs. In kind it is functional.
Test [4] concerns Staphylococcus aureus. Description: Antibacterial activity against Staphylococcus aureus ATCC 25923 after 20 hrs. The test is classed as functional.
Test [5] concerns Klebsiella pneumoniae. Description: Antibacterial activity against Klebsiella pneumoniae ATCC BAA-1706 after 20 hrs. In kind it is functional. As to conditions: ATCC BAA-1706, 20 h.
The next test deals with Bacillus anthracis. The experiment in a line: Antibacterial activity against Bacillus anthracis Sterne after 20 hrs. In kind it is functional.
The subject of test [6] is Pseudomonas aeruginosa. The experiment in a line: Antibacterial activity against Pseudomonas aeruginosa ATCC 27853 at 100 ug/ml after 20 hrs. In kind it is functional, organism-based.
Test [7] deals with Burkholderia thailandensis. Description: Antibacterial activity against Burkholderia thailandensis ATCC 700388 after 20 hrs. The test is classed as functional.
For test [8], the system named is Staphylococcus aureus. The experiment in a line: Antibacterial activity against methicillin-resistant Staphylococcus aureus Lac JE2 USA300 after 20 hrs. In kind it is functional. As to conditions: LAC JE2 USA300, 20 h.
A short description of test [9]: Antibacterial activity against Francisella tularensis subsp. holarctica ATCC 29684 after 20 hrs. In kind it is functional. Particulars: ATCC 29684, 20 h.
Test [10] deals with Klebsiella pneumoniae. The experiment in a line: Antibacterial activity against Klebsiella pneumoniae ATCC BAA-1706 at 100 ug/ml after 20 hrs. In kind it is functional, organism-based.
In test [11] the test system is Francisella tularensis subsp. holarctica. The experiment in a line: Antibacterial activity against Francisella tularensis subsp. holarctica ATCC 29684 at 100 ug/ml after 20 hrs. The test is classed as functional.
Test [12] relates to Staphylococcus aureus. Description: Antibacterial activity against methicillin-resistant Staphylococcus aureus Lac JE2 USA300 at 100 ug/ml after 20 hrs. The test is classed as functional, organism-based.
Test [13] deals with Staphylococcus aureus. Description: Antibacterial activity against Staphylococcus aureus ATCC 25923 at 100 ug/ml after 20 hrs. In kind it is functional, organism-based.
Test [14] relates to Burkholderia thailandensis. The experiment in a line: Antibacterial activity against Burkholderia thailandensis ATCC 700388 at 100 ug/ml after 20 hrs. The test is classed as functional.
Test [15] has as its system Pseudomonas aeruginosa. The experiment in a line: Antibacterial activity against Pseudomonas aeruginosa ATCC 27853 after 20 hrs. The test is classed as functional. Particulars: ATCC 27853, 20 h.
Test [16] relates to Burkholderia cepacia. Description: Antibacterial activity against Burkholderia cepacia ATCC 25608 at 100 ug/ml after 20 hrs. In kind it is functional, organism-based.
For test [17], the system named is Escherichia coli. Description: Antibacterial activity against Escherichia coli ATCC 35218 after 20 hrs. The test is classed as functional. Particulars: ATCC 35218, 20 h.
For test [18], the system named is Yersinia pestis. Description: Antibacterial activity against Yersinia pestis A1122 after 20 hrs. In kind it is functional. Particulars: A1122, 20 h.
Test [19] has as its system Staphylococcus aureus. Description: Inhibition of Staphylococcus aureus DnaG primase activity after 1 hr by HPLC analysis.
Test [20] can be described thus: Inhibition of Bacillus anthracis Sterne 34F2 DnaG primase activity using a DNA 32-mer template. More on the design: species or system Bacillus anthracis str. Sterne.

Values after ≈ are worked out from the molar mass of the structure shown. Active and inactive are the calls of the source. The rule behind the calls is not given here.

What is called MIC is the lowest concentration that inhibits growth of the organism. As to `O=C1c2cc(OCCCCCCCCN3CCCCC3)ccc2-c2ccc(OCCCCCCCCN3CCCCC3)cc21`, the MIC in the test on Burkholderia cepacia [1] (ATCC 25608, 20 h) worked out at 87.5 µg/mL (≈ 145 µM); against Staphylococcus aureus [4] (ATCC 25923, 20 h), 62.5 µg/mL (≈ 104 µM); against Klebsiella pneumoniae [5], 100 µg/mL (≈ 166 µM); with Bacillus anthracis, 17.5 µg/mL (≈ 29 µM); in [7] (ATCC 700388, 20 h) it was 25 µg/mL (≈ 41.5 µM); against Staphylococcus aureus [8] it was 16 µg/mL (≈ 26.5 µM). In addition, inhibition of growth in test [9] (MIC) required 37.5 µg/mL (≈ 62.2 µM). Also, the outcome in the test on Escherichia coli [2], in the test on Yersinia pestis [3] and with Pseudomonas aeruginosa [6] was inactive.
Take `O=C1c2cc(OCCN3CCCCC3)ccc2-c2ccc(OCCN3CCCCC3)cc21`: the MIC is 100 µg/mL (≈ 230 µM) in the test with Burkholderia cepacia [1] (ATCC 25608, 20 h) and 100 µg/mL (≈ 230 µM) with Bacillus anthracis. Moreover, the outcome (with Escherichia coli [2]; in the test on Yersinia pestis [3]; in the test on Klebsiella pneumoniae [10]; in test [11]; with Pseudomonas aeruginosa [6]; with Staphylococcus aureus [12]) was inactive. In addition, the outcome (in the test on Staphylococcus aureus [13]; in test [14]) was inactive.
Turning to `O=C1c2cc(OCCCN3CCCCC3)ccc2-c2ccc(OCCCN3CCCCC3)cc21`, the MIC result in the test on Burkholderia cepacia [1] is “inactive”. Further, the outcome (in the test with Escherichia coli [2]; in the test with Yersinia pestis [3]; with Klebsiella pneumoniae [10]; in [11]; in the test with Staphylococcus aureus [12]; in the test on Staphylococcus aureus [13]) was inactive. For the same molecule, in test [14], the result was inactive. The figures for the MIC in the test with Pseudomonas aeruginosa [15] and in the test with Bacillus anthracis were 100 µg/mL (≈ 216 µM) and 75 µg/mL (≈ 162 µM), respectively.
For the molecule `C=CCN(C)CCOc1ccc2c(c1)C(=O)c1cc(OCCN(C)CC=C)ccc1-2`, the outcome (in the test with Burkholderia cepacia [16]; in the test with Escherichia coli [2]; in the test on Yersinia pestis [3]; with Klebsiella pneumoniae [10]; in test [11]; in the test with Pseudomonas aeruginosa [6]) was inactive. In addition, the result (with Staphylococcus aureus [12]; in the test on Staphylococcus aureus [13]; in test [14]) was inactive. Inhibition of growth against Bacillus anthracis (MIC) required 100 µg/mL (≈ 246 µM).
On to `C=CCOc1ccc2c(c1)C(=O)c1cc(OCCCN(C)CC=C)ccc1-2`, for which the result in the test with Burkholderia cepacia [16], in the test on Escherichia coli [2], in the test on Yersinia pestis [3], with Klebsiella pneumoniae [10], in the test with Pseudomonas aeruginosa [6] and with Staphylococcus aureus [13] was inactive. In addition, in test [14], the result was inactive. Besides, the MIC amounted to 25 µg/mL (≈ 68.8 µM) in the test with Bacillus anthracis, 32 µg/mL (≈ 88 µM) in the test with Staphylococcus aureus [8] and 50 µg/mL (≈ 138 µM) in [9].
For the molecule `C=CCN(C)CCCOc1ccc2c(c1)C(=O)c1cc(OCCCN(C)CC=C)ccc1-2`, the minimal inhibitory concentration (MIC) amounted to 100 µg/mL (≈ 230 µM) with Escherichia coli [17]; 100 µg/mL (≈ 230 µM) against Yersinia pestis [18]; 100 µg/mL (≈ 230 µM) in the test with Burkholderia cepacia [1] (ATCC 25608, 20 h); 100 µg/mL (≈ 230 µM) in the test on Pseudomonas aeruginosa [15]; 100 µg/mL (≈ 230 µM) in the test on Bacillus anthracis. For the same molecule, the MIC entry (with Staphylococcus aureus [4]; in test [7]) was “inactive” in each case. Besides, the result (in the test on Klebsiella pneumoniae [10]; in [11]; in the test on Staphylococcus aureus [12]) was inactive.
In the case of `C=CCN(C)CCCCCCCCOc1ccc2c(c1)C(=O)c1cc(OCCCCCCCCN(C)CC=C)ccc1-2`, the MIC came to 100 µg/mL (≈ 174 µM) in the test on Burkholderia cepacia [1] (ATCC 25608, 20 h); 50 µg/mL (≈ 87 µM) against Staphylococcus aureus [4] (ATCC 25923, 20 h); 17.5 µg/mL (≈ 30.4 µM) with Bacillus anthracis; 17.5 µg/mL (≈ 30.4 µM) in test [7] (ATCC 700388, 20 h); 16 µg/mL (≈ 27.8 µM) against Staphylococcus aureus [8]; 37.5 µg/mL (≈ 65.2 µM) in [9]. In addition, the outcome with Escherichia coli [2], in the test on Yersinia pestis [3], in the test with Klebsiella pneumoniae [10] and with Pseudomonas aeruginosa [6] was inactive.
In general, IC50 refers to the midpoint of a concentration-inhibition curve. For the molecule `CCN(CC)CCOc1ccc2c(c1)C(=O)c1cc(OCCN(CC)CC)ccc1-2` [TILORONE], in the test on Staphylococcus aureus [4], the outcome was inactive. Moreover, the inhibition result in the test with Staphylococcus aureus [19] is “Active”. Besides, the concentration for half-maximal inhibition (IC50) in [20] is 7.1 µM.
